± gives the uncertainty stated by the source.
Assay: xn = mol fraction of the nth substance listed
Conditions: 100 kPa

Molecule `CCCCCCCC[n+]1ccccc1.[Br-]` + CC(C)[C@H](NC(=O)CN)C(=O)O + O has an electrical conductivity (288.15 K, x2 = 0.0008946, x1 = 0.00616) of 1.33 ± 0.08 S/m, an electrical conductivity (288.15 K, x2 = 0.0008949, x1 = 0.005884) of 1.29 ± 0.077 S/m and an electrical conductivity (288.15 K, x2 = 0.0008952, x1 = 0.005575) of 1.25 ± 0.075 S/m. The electrical conductivity (288.15 K, x2 = 0.0008955, x1 = 0.005248) was 1.21 ± 0.073 S/m, the electrical conductivity (288.15 K, x2 = 0.0008958, x1 = 0.004887) was 1.17 ± 0.07 S/m and the electrical conductivity (288.15 K, x2 = 0.0008961, x1 = 0.004507) was 1.12 ± 0.067 S/m. For the same molecule, the electrical conductivity (288.15 K, x2 = 0.0008965, x1 = 0.004077) was 1.05 ± 0.063 S/m, the electrical conductivity (288.15 K, x2 = 0.0008969, x1 = 0.003608) was 0.964 ± 0.058 S/m and the electrical conductivity (288.15 K, x2 = 0.0008974, x1 = 0.003092) was 0.861 ± 0.052 S/m. It also gave an electrical conductivity (288.15 K, x2 = 0.0008979, x1 = 0.002527) of 0.74 ± 0.044 S/m, an electrical conductivity (288.15 K, x2 = 0.0008985, x1 = 0.001896) of 0.592 ± 0.036 S/m and an electrical conductivity (288.15 K, x2 = 0.0008988, x1 = 0.001509) of 0.493 ± 0.03 S/m. For the same molecule, the electrical conductivity (288.15 K, x2 = 0.0008992, x1 = 0.001132) was 0.388 ± 0.023 S/m, the electrical conductivity (288.15 K, x2 = 0.0008995, x1 = 0.0007259) was 0.276 ± 0.017 S/m and the electrical conductivity (288.15 K, x2 = 0.001788, x1 = 0.005723) was 1.23 ± 0.074 S/m. It also gave an electrical conductivity (288.15 K, x2 = 0.001788, x1 = 0.005981) of 1.26 ± 0.076 S/m, an electrical conductivity (288.15 K, x2 = 0.001789, x1 = 0.005422) of 1.19 ± 0.072 S/m and an electrical conductivity (288.15 K, x2 = 0.00179, x1 = 0.004738) of 1.11 ± 0.067 S/m. It also gave an electrical conductivity (288.15 K, x2 = 0.00179, x1 = 0.005091) of 1.15 ± 0.069 S/m, an electrical conductivity (288.15 K, x2 = 0.001791, x1 = 0.004351) of 1.06 ± 0.064 S/m and an electrical conductivity (288.15 K, x2 = 0.001792, x1 = 0.003932) of 0.991 ± 0.059 S/m. The electrical conductivity (288.15 K, x2 = 0.001793, x1 = 0.002974) was 0.81 ± 0.049 S/m, the electrical conductivity (288.15 K, x2 = 0.001793, x1 = 0.003476) was 0.909 ± 0.054 S/m and the electrical conductivity (288.15 K, x2 = 0.001794, x1 = 0.002419) was 0.692 ± 0.042 S/m. It also gave an electrical conductivity (288.15 K, x2 = 0.001796, x1 = 0.001458) of 0.463 ± 0.028 S/m, an electrical conductivity (288.15 K, x2 = 0.001796, x1 = 0.001805) of 0.55 ± 0.033 S/m and an electrical conductivity (288.15 K, x2 = 0.001797, x1 = 0.0007114) of 0.261 ± 0.016 S/m. It also gave an electrical conductivity (288.15 K, x2 = 0.001797, x1 = 0.001099) of 0.365 ± 0.022 S/m, an electrical conductivity (293.15 K, x2 = 0.0008946, x1 = 0.006158) of 1.51 ± 0.09 S/m and an electrical conductivity (293.15 K, x2 = 0.0008949, x1 = 0.005882) of 1.47 ± 0.088 S/m. The electrical conductivity (293.15 K, x2 = 0.0008952, x1 = 0.005573) was 1.42 ± 0.085 S/m, the electrical conductivity (293.15 K, x2 = 0.0008955, x1 = 0.005248) was 1.38 ± 0.083 S/m and the electrical conductivity (293.15 K, x2 = 0.0008958, x1 = 0.004887) was 1.32 ± 0.079 S/m. For the same molecule, the electrical conductivity (293.15 K, x2 = 0.0008961, x1 = 0.004505) was 1.27 ± 0.076 S/m, the electrical conductivity (293.15 K, x2 = 0.0008965, x1 = 0.004077) was 1.19 ± 0.071 S/m and the electrical conductivity (293.15 K, x2 = 0.0008969, x1 = 0.003608) was 1.1 ± 0.066 S/m. The electrical conductivity (293.15 K, x2 = 0.0008974, x1 = 0.003092) was 0.974 ± 0.059 S/m, the electrical conductivity (293.15 K, x2 = 0.0008979, x1 = 0.002527) was 0.84 ± 0.05 S/m and the electrical conductivity (293.15 K, x2 = 0.0008985, x1 = 0.001896) was 0.67 ± 0.04 S/m. It also gave an electrical conductivity (293.15 K, x2 = 0.0008988, x1 = 0.001509) of 0.557 ± 0.034 S/m, an electrical conductivity (293.15 K, x2 = 0.0008992, x1 = 0.001132) of 0.437 ± 0.026 S/m and an electrical conductivity (293.15 K, x2 = 0.0008995, x1 = 0.0007259) of 0.309 ± 0.019 S/m. For the same molecule, the electrical conductivity (293.15 K, x2 = 0.001788, x1 = 0.005721) was 1.4 ± 0.084 S/m, the electrical conductivity (293.15 K, x2 = 0.001788, x1 = 0.005981) was 1.44 ± 0.087 S/m and the electrical conductivity (293.15 K, x2 = 0.001789, x1 = 0.00542) was 1.36 ± 0.082 S/m. It also gave an electrical conductivity (293.15 K, x2 = 0.00179, x1 = 0.004736) of 1.26 ± 0.076 S/m, an electrical conductivity (293.15 K, x2 = 0.00179, x1 = 0.005091) of 1.31 ± 0.079 S/m and an electrical conductivity (293.15 K, x2 = 0.001791, x1 = 0.004351) of 1.2 ± 0.072 S/m. For the same molecule, the electrical conductivity (293.15 K, x2 = 0.001792, x1 = 0.003932) was 1.12 ± 0.067 S/m, the electrical conductivity (293.15 K, x2 = 0.001793, x1 = 0.002972) was 0.917 ± 0.055 S/m and the electrical conductivity (293.15 K, x2 = 0.001793, x1 = 0.003476) was 1.03 ± 0.062 S/m. It also gave an electrical conductivity (293.15 K, x2 = 0.001794, x1 = 0.002419) of 0.785 ± 0.047 S/m, an electrical conductivity (293.15 K, x2 = 0.001796, x1 = 0.001458) of 0.521 ± 0.031 S/m and an electrical conductivity (293.15 K, x2 = 0.001796, x1 = 0.001805) of 0.621 ± 0.037 S/m. For the same molecule, the electrical conductivity (293.15 K, x2 = 0.001797, x1 = 0.0007114) was 0.293 ± 0.018 S/m, the electrical conductivity (293.15 K, x2 = 0.001797, x1 = 0.001099) was 0.411 ± 0.025 S/m and the electrical conductivity (298.15 K, x2 = 0.0008946, x1 = 0.006158) was 1.7 ± 0.1 S/m. For the same molecule, the electrical conductivity (298.15 K, x2 = 0.0008949, x1 = 0.00588) was 1.65 ± 0.099 S/m, the electrical conductivity (298.15 K, x2 = 0.0008952, x1 = 0.005573) was 1.6 ± 0.096 S/m and the electrical conductivity (298.15 K, x2 = 0.0008955, x1 = 0.005246) was 1.55 ± 0.093 S/m. The electrical conductivity (298.15 K, x2 = 0.0008958, x1 = 0.004885) was 1.49 ± 0.09 S/m, the electrical conductivity (298.15 K, x2 = 0.0008961, x1 = 0.004505) was 1.43 ± 0.086 S/m and the electrical conductivity (298.15 K, x2 = 0.0008965, x1 = 0.004077) was 1.34 ± 0.08 S/m. For the same molecule, the electrical conductivity (298.15 K, x2 = 0.0008969, x1 = 0.003608) was 1.23 ± 0.074 S/m, the electrical conductivity (298.15 K, x2 = 0.0008974, x1 = 0.003092) was 1.1 ± 0.066 S/m and the electrical conductivity (298.15 K, x2 = 0.0008979, x1 = 0.002527) was 0.942 ± 0.057 S/m. It also gave an electrical conductivity (298.15 K, x2 = 0.0008985, x1 = 0.001896) of 0.751 ± 0.045 S/m, an electrical conductivity (298.15 K, x2 = 0.0008988, x1 = 0.001509) of 0.623 ± 0.037 S/m and an electrical conductivity (298.15 K, x2 = 0.0008992, x1 = 0.001132) of 0.489 ± 0.029 S/m. It also gave an electrical conductivity (298.15 K, x2 = 0.0008995, x1 = 0.0007259) of 0.343 ± 0.021 S/m.
